How the values were obtained:
[1] = Phase 2a pediatric study: pharmacokinetic profile of dupilumab; type: in vivo, human; details: pediatric patients with AD, compared with adults
Method: The study consisted of a screening period (day −35 to day −1), a baseline visit, Part A (including a single-dose treatment followed by an 8-week semi-dense PK sampling period), and Part B (including a 4-week repeat-dose treatment period [4 weekly doses] followed by an 8-week follow-up period).
Safety and tolerability was assessed by vital signs, physical examinations, clinical laboratory tests, and clinical evaluations. Patients were asked to monitor all adverse events (AEs) experienced from the time of informed consent/assent until their last study visit. Serum samples were collected for assay of dupilumab levels, and PK parameters were calculated using the dupilumab concentration data. Serum samples were collected for assay of ADA, and exploratory analyses. Efficacy was assessed during the study at specified clinic visits using the Pruritus NRS, SCORAD, and EASI that measure the extent and severity of AD, and the IGA that rates the overall severity of AD.

[2] = Functional dupilumab concentrations in serum, 52-week trial with TCS; type: in vivo, human; details: Week 16
Method: The clinical trial was a 52-week randomized, multicenter, double-blind, placebo-controlled trial of subcutaneous dupilumab with concomitant topical corticosteroids (TCS) in 740 adult patients (NCT02260986) randomized 3:1:3 to placebo, dupilumab 300 mg every 2 weeks (q2w) and dupilumab 300 mg every week (qw); patients randomized to dupilumab received a loading dose of 600 mg. An open-label extension study of dupilumab 300 mg qw (NCT01949311) is ongoing in patients who participated in prior studies and results from 1076 patients treated for up to 68 weeks are also reported. This Example describes functional dupilumab concentrations measured in serum from blood samples at various time-points and analyzed using descriptive statistics.

[3] = system: patients with moderate-to-severe AD; test: Pooled subgroup analysis of two 16-week phase 3 dupilumab monotherapy trials by CsA eligibility / CsA history; type: in vivo, human; details: for Patients achieving EASI 75, n (%) / Patients achieving IGA 0-1, n (%) / bacterial conjunctivitis rate / conjunctivitis rate: 16 weeks; for Patients achieving a ≥4-point improvement in peak pruritus NRS, n/N1 (%): baseline NRS ≥4
Method: Pts (N=1379) with moderate-to-severe AD whose disease was not adequately controlled by topical medications or for whom topical treatment is medically inadvisable were randomized to receive subcutaneous injections of placebo (PBO) or dupilumab 300 mg every 2 weeks (q2w) or weekly (qw) for 16 weeks.
Subset A pts had, on average, more severe disease than subset B pts, as assessed by Eczema Area and Severity Index (EASI; mean baseline±SD EASI score 37.2±14.69 vs 32.0±13.29; nominal p<0.0001).

[4] = Functional dupilumab concentrations in serum, two 16-week phase 3 monotherapy studies; type: in vivo, human; details: for mean functional concentration of dupilumab in serum: monotherapy
Method: The studies were multicenter, randomized, double-blind, placebo-controlled studies of subcutaneously administered dupilumab in 1379 adult patients; each had duration of 16 weeks (NCT02277743 and NCT02277769). Patients were randomized 1:1:1 to placebo, dupilumab 300 mg every week (qw), and dupilumab 300 mg every 2 weeks (q2w); patients randomized to dupilumab received a loading dose of 600 mg. Presented here are functional dupilumab concentrations measured in serum from blood samples at various pharmacokinetic time-points and analyzed using descriptive statistics.

[5] = system: adults with moderate-to-severe AD; test: 1-year placebo-controlled trial of dupilumab + TCS: subgroup analysis by CsA eligibility / CsA history; type: in vivo, human; details: for proportion of patients achieving a 75% improvement in EASI / proportion of patients achieving a ≥4-point improvement in peak pruritus numerical rating scale / Patients achieving EASI-75, n (%) / Patients achieving a peak pruritus NRS score improvement ≥4 points from baseline, n/N1 (%): Week 52; for Patients achieving a peak pruritus NRS score improvement ≥4 points from baseline, n/N1 (%): baseline NRS ≥4
Method: Patients were randomized 3:1:3 (dupilumab 300 mg weekly [qw], every two weeks [q2w], or placebo). Patients received concomitant low and/or medium potency TCS, which could be tapered and discontinued based on clinical response. Topical calcineurin inhibitors could be used in areas considered inadvisable for TCS.
In further analysis, the efficacy and safety of dupilumab vs placebo (PBO) at 52 weeks was compared in two patient (pt) subsets of the population: pts who were earlier treated with CsA but responded inadequately or were intolerant to CsA (subset A; n=114) and the remaining study population (subset B; n=509). Subset A pts had, on average, more severe disease than subset B pts, as assessed by Eczema Area and Severity Index (EASI) (mean baseline±SD EASI score 37.0±12.70 vs 31.6±12.77; nominal p<0.0001 [post-hoc analysis]).

[6] = system: adults with moderate-to-severe atopic dermatitis; test: Phase 3 open-label trial: dupilumab-naïve vs retreated patients (treatment interruption); details: for adverse events/100 patient years: to Wk52; for decrease in peak pruritus NRS score from baseline of parent study / patients who achieved EASI-75 (from baseline of parent study) / patients with Investigator's Global Assessment score of 0 or 1: Wk52
Method: This Example presents an interim analysis of an ongoing multicenter, open-label trial (NCT01949311) of dupilumab treatment for up to 3 yrs. Adults with moderate-to-severe atopic dermatitis (AD) were enrolled after participation in prior dupilumab trials. Safety and efficacy at Week [Wk] 52 for dupilumab naïve (previously unexposed) and retreated (>13 Wk gap between parent and open-label study) patients were evaluated.

[7] = CSA-eligible subset, Dupilumab 300 mg Q2W
[8] = CSA-eligible subset, Dupilumab 300 mg QW
[9] = CSA-ineligible subset, Dupilumab 300 mg Q2W
[10] = CSA-ineligible subset, Dupilumab 300 mg QW

dupilumab: fully human anti-IL-4R antibody; heavy chain SEQ ID NO: 9, light chain SEQ ID NO: 10
pharmacokinetic profile [1]: consistent with adults | mean functional concentration of dupilumab in serum ([2]; 300 mg q2w (600 mg loading dose) with TCS): 80 mg/L | mean functional concentration of dupilumab in serum ([2]; 300 mg qw (600 mg loading dose) with TCS): 185 mg/L | Patients achieving EASI 75, n (%) ([3]; CSA-eligible subset, Dupilumab 300 mg Q2W (N = 353)): (49.9) % | Patients achieving IGA 0-1, n (%) [3, 7]: (38.8) % | Patients achieving a ≥4-point improvement in peak pruritus NRS, n/N1 (%) [3, 7]: (39.7) % | Patients achieving EASI 75, n (%) ([3]; CSA-eligible subset, Dupilumab 300 mg QW (N = 366)): (54.1) % | Patients achieving IGA 0-1, n (%) [3, 8]: (39.1) % | Patients achieving a ≥4-point improvement in peak pruritus NRS, n/N1 (%) [3, 8]: (40.5) % | Patients achieving EASI 75, n (%) ([3]; CSA-ineligible subset, Dupilumab 300 mg Q2W (N = 104)): (40.4) % | Patients achieving IGA 0-1, n (%) [3, 9]: (30.8) % | Patients achieving a ≥4-point improvement in peak pruritus NRS, n/N1 (%) [3, 9]: (33.7) % | Patients achieving EASI 75, n (%) ([3]; CSA-ineligible subset, Dupilumab 300 mg QW (N = 96)): (35.4) % | Patients achieving IGA 0-1, n (%) [3, 10]: (28.1) % | Patients achieving a ≥4-point improvement in peak pruritus NRS, n/N1 (%) [3, 10]: (36.3) % | bacterial conjunctivitis rate ([3]; CsA-eligible, dupilumab q2w): 0.6% | conjunctivitis rate ([3]; CsA-eligible, dupilumab q2w): 5% | bacterial conjunctivitis rate ([3]; CsA-eligible, dupilumab qw): 1.1% | conjunctivitis rate ([3]; CsA-eligible, dupilumab qw): 3.3% | bacterial conjunctivitis rate ([3]; CsA-ineligible, dupilumab q2w): 3.8% | conjunctivitis rate ([3]; CsA-ineligible, dupilumab q2w): 1.9% | bacterial conjunctivitis rate ([3]; CsA-ineligible, dupilumab qw): 4.2% | conjunctivitis rate ([3]; CsA-ineligible, dupilumab qw): 4.2% | Patients achieving EASI 75, n (%) ([3]; Subset A (inadequate response or intolerance to CsA), Dupilumab 300 mg Q2W (N = 94)): (38.3) % | Patients achieving IGA 0-1, n (%) ([3]; Subset A, Dupilumab 300 mg Q2W): (29.8) % | Patients achieving a ≥4-point improvement in peak pruritus NRS, n/N1 (%) ([3]; Subset A, Dupilumab 300 mg Q2W): (33.7) % | Patients achieving EASI 75, n (%) ([3]; Subset A, Dupilumab 300 mg QW (N = 83)): (34.9) % | Patients achieving IGA 0-1, n (%) ([3]; Subset A, Dupilumab 300 mg QW): (27.7) % | Patients achieving a ≥4-point improvement in peak pruritus NRS, n/N1 (%) ([3]; Subset A, Dupilumab 300 mg QW): (34.1) % | Patients achieving EASI 75, n (%) ([3]; Subset B (remaining study population), Dupilumab 300 mg Q2W (N = 363)): (50.1) % | Patients achieving IGA 0-1, n (%) ([3]; Subset B, Dupilumab 300 mg Q2W): (38.8) % | Patients achieving a ≥4-point improvement in peak pruritus NRS, n/N1 (%) ([3]; Subset B, Dupilumab 300 mg Q2W): (39.5) % | Patients achieving EASI 75, n (%) ([3]; Subset B, Dupilumab 300 mg QW (N = 379)): (53.6) % | Patients achieving IGA 0-1, n (%) ([3]; Subset B, Dupilumab 300 mg QW): (38.8) % | Patients achieving a ≥4-point improvement in peak pruritus NRS, n/N1 (%) ([3]; Subset B, Dupilumab 300 mg QW): (40.9) % | ratio (qw:q2w) of mean functional concentrations ([4]; Week 16): 2.4 | mean functional concentration of dupilumab in serum ([4]; dupilumab 300 q2w (600 mg loading dose), Week 16): ~75 mg/L | mean functional concentration of dupilumab in serum ([4]; dupilumab 300 qw (600 mg loading dose), Week 16): 180 mg/L | share of the Week 12 Ctrough reached by Week 4 ([4]; q2w dose, 600 mg loading dose): ~80% | share of the Week 12 Ctrough reached by Week 4 ([4]; qw dose): ~67% | treatment-emergent adverse event (TEAE) rate ([5]; CSA-eligible, dupilumab q2w): 87.2% | treatment-emergent adverse event (TEAE) rate ([5]; CSA-eligible, dupilumab qw): 81.7% | treatment-emergent adverse event (TEAE) rate ([5]; CSA-ineligible, dupilumab q2w): 91.7% | treatment-emergent adverse event (TEAE) rate ([5]; CSA-ineligible, dupilumab qw): 88.5% | proportion of patients achieving a 75% improvement in EASI ([5]; CsA-eligible, dupilumab 300 mg q2w + TCS): 69.1% | proportion of patients achieving a 75% improvement in EASI ([5]; CsA-eligible, dupilumab 300 mg qw + TCS): 67.0% | proportion of patients achieving a ≥4-point improvement in peak pruritus numerical rating scale ([5]; CsA-eligible, dupilumab q2w): 53.8% | proportion of patients achieving a ≥4-point improvement in peak pruritus numerical rating scale ([5]; CsA-eligible, dupilumab qw): 39.7% | proportion of patients achieving a 75% improvement in EASI ([5]; CsA-ineligible, dupilumab 300 mg q2w + TCS): 52.4% | proportion of patients achieving a 75% improvement in EASI ([5]; CsA-ineligible, dupilumab 300 mg qw + TCS): 50.0% | proportion of patients achieving a ≥4-point improvement in peak pruritus numerical rating scale ([5]; CsA-ineligible, dupilumab q2w): 42.9% | proportion of patients achieving a ≥4-point improvement in peak pruritus numerical rating scale ([5]; CsA-ineligible, dupilumab qw): 35.6% | Patients achieving EASI-75, n (%) ([5]; Subset A (inadequate response or intolerance to CsA), Dupilumab 300 mg Q2W ± TCS (N = 19)): (52.6) % | Patients achieving a peak pruritus NRS score improvement ≥4 points from baseline, n/N1 (%) ([5]; Subset A, Dupilumab 300 mg Q2W ± TCS): (47.4) % | Patients achieving EASI-75, n (%) ([5]; Subset A, Dupilumab 300 mg QW ± TCS (N = 43)): (48.8) % | Patients achieving a peak pruritus NRS score improvement ≥4 points from baseline, n/N1 (%) ([5]; Subset A, Dupilumab 300 mg QW ± TCS): (38.1) % | Patients achieving EASI-75, n (%) ([5]; Subset B (remaining study population), Dupilumab 300 mg Q2W ± TCS (N = 70)): (68.6) % | Patients achieving a peak pruritus NRS score improvement ≥4 points from baseline, n/N1 (%) ([5]; Subset B, Dupilumab 300 mg Q2W ± TCS): (52.2) % | Patients achieving EASI-75, n (%) ([5]; Subset B, Dupilumab 300 mg QW ± TCS (N = 227)): (67.0) % | Patients achieving a peak pruritus NRS score improvement ≥4 points from baseline, n/N1 (%) ([5]; Subset B, Dupilumab 300 mg QW ± TCS): (39.1) % | serious AEs/100PY ([6]; dupilumab-naïve patients): 11.7 serious AEs/100PY | treatment discontinuations due to AEs ([6]; dupilumab-naïve patients): 2.6% | adverse events/100 patient years ([6]; dupilumab-naïve patients (n=116)): 432.5 AEs/100PY | deaths ([6]; naïve and retreated patients): no deaths | decrease in peak pruritus NRS score from baseline of parent study ([6]; naïve patients): 64.9% | patients who achieved EASI-75 (from baseline of parent study) ([6]; naïve patients): 73.3% | patients with Investigator's Global Assessment score of 0 or 1 ([6]; naïve patients): 49.1% | serious AEs/100PY ([6]; retreated patients): 5.4 serious AEs/100PY | treatment discontinuations due to AEs ([6]; retreated patients): 2.8% | adverse events/100 patient years ([6]; retreated patients (>13 Wk gap; n=290)): 371.0 AEs/100PY | decrease in peak pruritus NRS score from baseline of parent study ([6]; retreated patients): 60.6% | patients who achieved EASI-75 (from baseline of parent study) ([6]; retreated patients): 80.7% | patients with Investigator's Global Assessment score of 0 or 1 ([6]; retreated patients): 50.7%

Reference: patent US10485844B2, “Methods for treating severe atopic dermatitis by administering an IL-4R inhibitor” (Regeneron Pharmaceuticals, Inc., priority 2016, dated 2019)
